Data taken from patent US4289876A, “Antisecretory agents” (Bristol-Myers Company, priority 1980, dated 1981).
Values belong to the molecule of their own block, whether it stands above or below them.

How the values were obtained:
[1] = in vivo; cited from earlier work
[2] = test system: histamine H2-receptors; details: Black et al., Nature 1972; cited from earlier work
[3] = molecular target: T1, histamine H2-receptor (Cavia porcellus, UniProt P47747); assay: Histamine H2-receptor antagonism, isolated guinea pig right atria assay (displacement of histamine concentration-response curve for atrial rate)
T1 construct: The spontaneously beating right atrium was dissected free from other tissues; from tissue; host or cells: isolated spontaneously beating right atrium of male Hartley guinea pigs
Protocol: Subsequent investigations by Hughes and Coret, Proc. Soc. […] Black et al., Agents and Actions, 3, 133 (1973) and Brimblecombe et al., Fed. […] The present comparative studies were carried out using a modification of the procedure reported by Reinhardt et al., Agents and Actions, 4, 217 (1974).
Male Hartley strain guinea pigs (350-450 gm.) were sacrificed by a blow on the head. The heart was excised and placed in a Petri dish of oxygenated (95% O2, 5% CO2) modified Krebs solution (g./liter: NaCl 6.6, KCl 0.35, MgSO4.7 H2 O 0.295, KH2 PO4 0.162, CaCl2 0.238, NaHCO3 2.1 and dextrose 2.09). The spontaneously beating right atrium was dissected free from other tissues and a silk thread (4-0) attached to each end. The atrium was suspended in a 20 ml. muscle chamber containing oxygenated modified Krebs solution maintained at 32° C. Atrial contractions were recorded isometrically be means of a Grass FT 0.03 force displacement transducer and recordings of contractile force and rate were made with Beckman RP Dynograph.
A resting tension of 1 g. was applied to the atrium and it was allowed to equilibrate for 1 hour.
Concentration-response curve displacement factors were calculated as follows: [formula] […] [formula]

[4] = test system: peptic ulcer disease; details: clinical evaluation, Gray et al., Lancet 1977; cited from earlier work
[5] = test system: H2-receptor; details: cited from earlier work
[6] = cited from earlier work
[7] = histamine ED50 after 30 minute incubation with test compound at 3 × 10^-5 M

T1 sequence (P47747 whole entry): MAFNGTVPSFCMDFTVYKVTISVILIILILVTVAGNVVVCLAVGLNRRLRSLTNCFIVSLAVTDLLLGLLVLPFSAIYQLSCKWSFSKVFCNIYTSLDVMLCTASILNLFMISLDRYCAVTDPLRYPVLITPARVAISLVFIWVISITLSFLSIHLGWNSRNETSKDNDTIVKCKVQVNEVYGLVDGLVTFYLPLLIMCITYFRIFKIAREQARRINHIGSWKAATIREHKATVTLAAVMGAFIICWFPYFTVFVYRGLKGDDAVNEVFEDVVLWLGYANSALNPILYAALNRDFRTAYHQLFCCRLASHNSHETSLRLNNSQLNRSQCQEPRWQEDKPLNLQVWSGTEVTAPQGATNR

SMILES: CNC(=S)NCCCCc1cnc[nH]1 [Burimamide]
oral absorption [1]: oral absorption is poor
mode of antagonism at histamine H2-receptors [2]: competitive antagonist

Activity Ratio Relative to Cimetidine ([3]; Table 1, ratio of displacement factors, 3 × 10^-5 M): 2.09
Histamine ED50 With 95% Confidence Limits [3, 7]: 20.97 µg/mL
SMILES: C#CCNC(=C[N+](=O)[O-])NCCSCc1ncccc1Cl [BL-6075, 1-Nitro-2-(2-propynylamino)-2-{2-[(3-chloro-2-pyridyl)methylthio]ethylamino}ethylene]

SMILES: CN/C(=N/CCSCc1nc[nH]c1C)NC#N [Cimetidine]
Histamine ED50 With 95% Confidence Limits [3, 7]: 4.80 µg/mL
Concentration-Response Curve Displacement Factor ([3]; test compound 3 × 10^-5 M, rightward displacement of histamine curve): 25.26
efficacy in treatment of peptic ulcer disease [4]: effective therapeutic agent in the treatment of peptic ulcer disease
potency/effectiveness as H2 antagonist vs. earlier compound [5]: as effective an H2 antagonist as metiamide

SMILES: C/N=C(\S)NCCSCc1[nH]cnc1C [Metiamide]
oral activity in man [6]: orally active in man
potency/effectiveness as H2 antagonist vs. earlier compound [5]: more potent than burimamide

SMILES: NCCc1c[nH]cn1 [Histamine]
Histamine ED50 With 95% Confidence Limits ([3]; histamine control before BL-6075, N=3): 0.39 µg/mL
concentration of maximal response (atrial rate) ([3]; histamine, cumulative addition): 30 µM

potency/activity relative to cimetidine as a histamine H2-receptor antagonist ([3]; based on displacement factors): 8.19 times
Histamine ED50 With 95% Confidence Limits [3, 7]: 57.92 µg/mL
SMILES: C#CCNC(=NCCSCc1ncccc1Cl)NC#N [BL-6083, N-Cyano-N'-(2-propyn-1-yl)-N"-{2-[(3-chloro-2-pyridyl)methylthio]ethyl}guanidine]
